Source: patent US6555565B2, “Apoptosis inhibitor” (Takeda Chemical Industries, Ltd., priority 1997, dated 2003)

Test system: mouse fibroblast (L929 cells, IFO 50409)
Assay: TNF-α-induced apoptosis (cell death) of L929 cells, crystal violet staining of living cells
Format: cell-based
Settings: test compound final concentration 1 μM, 72 hours cultivation, relative to dexamethasone (final concentration 1.1 μM) = 100
Description: Apoptosis (cell death) was induced by adding TNF-α to cells. The inhibitory activity of a test compound to this apoptosis was determined by using known dexamethasone having an apoptosis inhibitory activity as the standard.
Namely, 25 μl of a culture medium (PRMI-1640, produced by Nikken Seibutsu Igaku Kenkyusho, Japan) (containing 10 weight % of fetal bovine serum) was added to each well of a 96-well microplate. Then, added was 2 μl of a solution prepared by 20 volume fold dilution of dimethylformamide (in the case of Compound No. 16) or dimethylsulfoxide (in the case of Compound Nos. 2, 4, 6, 8, 13) solution of a test compound (concentration of the test compound: 1 mM) with the above culture medium.
Subsequently, 25 μl of a solution prepared by dissolving TNF-α (Genzyme, USA)(40 ng/ml culture medium) in the above culture medium, and 50 μl of a suspension (2×10^5 cells/ml) prepared by suspending mouse fibroblast (L929 cells, IFO 50409) in the above culture medium were added, and then cells were cultivated for 72 hours at 37° C. in the presence of 5% carbon dioxide in air. The final concentration of the test compound during cultivation was 1 μM.
After cultivation, the culture medium was removed from the wells by aspiration, and 50 μl of a 5% (w/v) crystal violet/70% (v/v) methanol solution was added to each well to pigment the living cells. Then the wells were washed and dried. The apoptosis inhibitory activity of the test compound was obtained by determining the optical density by using an absorptiometer [Microplate Reader Model 450, produced by Bio-Rad] at the wavelength of 570 nm.
While, the apoptosis inhibitory activity of dexamethasone was obtained in the same manner as above except that the above test compound (final concentration: 1 μM) was replaced by dexamethasone (final concentration: 1.1 μM).
Then, the apoptosis inhibitory activity of each test compounds (final concentration: 1 μM) was calculated when the apoptosis inhibitory activity of dexamethasone (final concentration: 1.1 μM) was 100.

Row | Structure (SMILES) | Apoptosis inhibitory activity (%)
1 | COc1cc(CCCC2OC(=O)NC2=O)ccc1OCc1nc(-c2ccco2)oc1C (stereo not drawn) [Compound No. 4, 5-[3-[4-[2-(2-furyl)-5-methyl-4-oxazoly]methoxy]-3-methoxyphenyllpropyl]-2,4-oxazolidinedione] | 74%
2 | Cn1nc(CCOc2ccc(CC3SC(=O)NC3=O)cc2)nc1-c1ccccc1 (stereo not drawn) [Compound No. 8, 5-[4-[2-(1-methyl-5-phenyl-1,2,4-triazol-3-yl)ethoxy]benzyl]-2,4-thiazolidinedione] | 70%
3 | CN(CCOc1ccc(CC2SC(=O)NC2=O)cc1)c1ccccn1 (stereo not drawn) [Compound No. 13, 5-[[4-[2-(methyl-2-pyridylamino)ethoxy]phenyl]methyl]-2,4-thiazolidinedione, reference compound] | 92%
4 | Cc1oc(-c2ccc3ccccc3c2)nc1CCOc1ccc(CCCC2OC(=O)NC2=O)cc1 (stereo not drawn) [Compound No. 2] | 70%
5 | COc1cc(CCCC2OC(=O)NC2=O)ccc1OC(C)c1nc(-c2ccccc2)oc1C (stereo not drawn) [Compound No. 16, 5-[3-[3-methoxy-4-[1-(5-methyl-2-phenyl-4-oxazolyl)ethoxy]phenyl]propyl]-2,4-oxazolidinedione] | 71%
6 | Cc1oc(-c2ccccc2)nc1COc1ccc(CCCC2OC(=O)NC2=O)cc1 (stereo not drawn) [Compound No. 6, 5-[3-[4-(5-methyl-2-phenyl-4-oxazolylmethoxy]phenyl]propyl]-2,4-oxazolidinedione] | 70%
